Test results from ChEMBL document CHEMBL2429744, “Anticancer activities of an antimicrobial peptide derivative of Ixosin-B amide” (Bioorg Med Chem Lett, 2013).
Each block holds one molecule with its values, some of them ahead of it. Active and inactive are the calls of the source. The calls are words filed in the database; no cut-off is given here. Peptide text beside a SMILES is read from it.

Columns and labels:
[1] = system: MCF7; experiment: Antimigratory activity against human MCF7 cells assessed as inhibition of wound-healing activity at 5 uM after 48 hrs by phase contrast microscopic analysis relative to untreated control; type: functional
[2] = system: MCF7; experiment: Antiproliferative activity against human MCF7 cells assessed as cell viability at 100 uM after 48 hrs by MTT assay; type: functional, cell-based
[3] = system: MCF7; experiment: Induction of alpha-tubulin mislocalization in human MCF7 cells assessed as appearance of aggregated protein around nucleus at 5 uM after 24 to 48 hrs by confocal microscopic analysis relative to untreated control; type: functional, cell-based
[4] = system: MCF7; experiment: Induction of morphological changes in human MCF7 cells assessed as cell shrinkage at 5 uM after 24 to 48 hrs by confocal microscopic analysis relative to untreated control; type: functional, cell-based
[5] = system: MCF7; experiment: Induction of morphological changes in human MCF7 cells at 1 uM after 24 to 48 hrs by confocal microscopic analysis relative to untreated control; type: functional, cell-based
[6] = system: MCF7; experiment: Inhibition of F-actin structural changes in human MCF7 cells at 25 uM after 24 to 48 hrs using AlexaFluor 488 and TRITC staining by confocal microscopic analysis; type: functional, cell-based
[7] = system: MCF7; experiment: Induction of cortical alpha-tubulin structural changes in human MCF7 cells at 25 uM after 24 to 48 hrs using AlexaFluor 488 and TRITC staining by confocal microscopic analysis relative to untreated control; type: functional, cell-based
[8] = system: MCF7; experiment: Ratio of cytotoxic activity to antimigratory activity against human MCF7 cells; type: functional
[9] = system: MCF7; experiment: Induction of cell death in human MCF7 cells at 25 uM after 24 hrs; type: cell-based; conditions: mcf7, 24 h
[10] = system: MCF7; experiment: Antimigratory activity against human MCF7 cells assessed as inhibition of wound-healing activity at 1 uM after 24 hrs by phase contrast microscopic analysis relative to untreated control; type: functional, cell-based
[11] = system: MCF7; experiment: Antiproliferative activity against human MCF7 cells assessed as cell viability after 48 hrs by MTT assay; type: functional, cell-based; conditions: MCF7, 48 h

Structure (SMILES): CC(C)C[C@H](NC(=O)[C@H](CCCNC(=N)N)NC(=O)[C@@H](N)CCCCN)C(=O)N[C@@H](CCCNC(=N)N)C(=O)N[C@@H](CCCNC(=N)N)C(=O)N[C@H](C(=O)N[C@@H](Cc1c[nH]c2ccccc12)C(=O)N[C@@H](CCCNC(=N)N)C(=O)N[C@@H](CCCNC(=N)N)C(=O)N[C@@H](Cc1c[nH]c2ccccc12)C(=O)N[C@@H](CCCNC(=N)N)C(N)=O)C(C)C (H-KRLRRVWRRWR-NH2)
inhibition [1]: inactive
Activity [2]: inactive

IC50 [11]: 61.5 µM
Structure (SMILES): CC(C)C[C@H](NC(=O)[C@H](Cc1c[nH]c2ccccc12)NC(=O)[C@@H](N)CCCCN)C(=O)N[C@@H](CCCNC(=N)N)C(=O)N[C@@H](CCCNC(=N)N)C(=O)N[C@H](C(=O)N[C@@H](Cc1c[nH]c2ccccc12)C(=O)N[C@@H](CCCNC(=N)N)C(=O)N[C@@H](Cc1c[nH]c2ccccc12)C(=O)N[C@@H](Cc1c[nH]c2ccccc12)C(=O)N[C@@H](CCCNC(=N)N)C(N)=O)C(C)C (H-KWLRRVWRWWR-NH2)
Activity [3]: Active
Activity [4]: Active
Activity [5]: inactive
inhibition [6]: Active
inhibition [7]: Active
Ratio [8]: 10
Activity [9]: Toxic
inhibition at 5 µM ([1]; MCF7, 48 h): 40%
Activity [10]: inactive
